Source: ChEMBL document CHEMBL2331118, “A facile three-component [3+2]-cycloaddition for the regioselective synthesis of highly functionalised dispiropyrrolidines acting as antimycobacterial agents” (Bioorg Med Chem Lett, 2013)
In brackets after ≈: the same amount, converted by molar mass.

Legend:
[1] = system: Mycobacterium tuberculosis; experiment: Antitubercular activity against Mycobacterium tuberculosis H37Rv by microdilution alamar Blue broth assay; type: functional, organism-based
[2] = system: Mycobacterium tuberculosis; experiment: Antitubercular activity against Mycobacterium tuberculosis H37Rv by BacTiter-Gl Microbial Cell Viability assay; type: functional, organism-based
Vero = experiment: Cytotoxicity against african green monkey Vero cells after 72 hrs by MTT assay; type: cell-based; details: Chlorocebus sabaeus
[3] = system: Mycobacterium tuberculosis; experiment: Ratio of cycloserine MIC to compound MIC for Mycobacterium tuberculosis H37Rv by BacTiter-Gl Microbial Cell Viability assay; type: functional
[4] = system: Mycobacterium tuberculosis; experiment: Ratio of cycloserine EC50 to compound EC50 for Mycobacterium tuberculosis H37Rv by BacTiter-Gl Microbial Cell Viability assay; type: functional
[5] = system: Mycobacterium tuberculosis; experiment: Ratio of pyrimethamine MIC to compound MIC for Mycobacterium tuberculosis H37Rv by BacTiter-Gl Microbial Cell Viability assay; type: functional
[6] = system: Mycobacterium tuberculosis; experiment: Ratio of pyrimethamine EC50 to compound EC50 for Mycobacterium tuberculosis H37Rv by BacTiter-Gl Microbial Cell Viability assay; type: functional
[7] = system: Mycobacterium tuberculosis; experiment: Ratio of cycloserine EC90 to compound EC90 for Mycobacterium tuberculosis H37Rv by BacTiter-Gl Microbial Cell Viability assay; type: functional
[8] = system: Mycobacterium tuberculosis; experiment: Ratio of pyrimethamine EC90 to compound EC90 for Mycobacterium tuberculosis H37Rv by BacTiter-Gl Microbial Cell Viability assay; type: functional

Which results are given for `COc1ccc([C@H]2CN(C)[C@@]3(C(=O)c4cccc5cccc3c45)[C@@]23Cc2ccccc2C3=O)cc1`?
EC50 [1]: 40.9 µM; EC90 [1]: > 100 µM; EC50 [2]: 13.4 µM; EC90 [2]: 62.4 µM; MIC [2]: 100 µM (≈ 46 µg/mL); IC50 (Vero): > 62.5 µg/mL

With `CN1C[C@H](c2ccc(N3CCCCC3)cc2)[C@]2(Cc3ccccc3C2=O)[C@]12C(=O)c1cccc3cccc2c13` as the compound, how does the EC50 [1] read?
Its EC50 is > 100 µM.

And the EC90 [1]?
Its EC90 is > 100 µM.

What about the EC50 [2] of the same compound?
Its EC50 is 17.8 µM.

And the EC90 [2]?
Its EC90 is > 100 µM.

And the IC50 (Vero)?
The IC50 was > 62.5 µg/mL.

Which EC50 [1] does the source give for `CN1C[C@H](c2ccc(Cl)cc2)[C@]2(Cc3ccccc3C2=O)[C@]12C(=O)c1cccc3cccc2c13` here?
The EC50 was 68.5 µM.

What about the EC90 [1] of the same compound?
Its EC90 is > 100 µM.

What about the EC50 [2] of the same compound?
The EC50 was 6.27 µM.

What about the EC90 [2] of the same compound?
Its EC90 is 29.6 µM.

And the MIC [2]?
Its MIC is 50 µM (≈ 23.2 µg/mL).

What about the IC50 (Vero) of the same compound?
The IC50 was > 62.5 µg/mL.

How did the EC50 [1] turn out when `CN1C[C@H](c2ccc(C(F)(F)F)cc2)[C@]2(Cc3ccccc3C2=O)[C@]12C(=O)c1cccc3cccc2c13` was run?
Its EC50 is 23.4 µM.

And the EC90 [1]?
The EC90 was > 100 µM.

What about the EC50 [2] of the same compound?
Its EC50 is 3.21 µM.

What about the EC90 [2] of the same compound?
Its EC90 is 12.3 µM.

What about the MIC [2] of the same compound?
Its MIC is 50 µM (≈ 24.9 µg/mL).

And the IC50 (Vero)?
The IC50 was > 62.5 µg/mL.

What does the source list for `NNC(=O)c1ccncc1` [ISONIAZID]?
EC50 [1]: 0.19 µM; EC90 [1]: > 5 µM; EC50 [2]: 0.13 µM; EC90 [2]: 0.2 µM; MIC [2]: 0.31 µM (≈ 0.0425 µg/mL); IC50 (Vero): > 62.5 µg/mL

What does the source list for `CN1C[C@H](c2ccc(C(=O)O)cc2)[C@]2(Cc3ccccc3C2=O)[C@]12C(=O)c1cccc3cccc2c13`?
EC50 [1]: 69.2 µM; EC90 [1]: 99.7 µM; MIC [1]: 100 µM (≈ 47.4 µg/mL); EC50 [2]: 20.7 µM; EC90 [2]: > 100 µM; MIC [2]: 100 µM (≈ 47.4 µg/mL); IC50 (Vero): > 62.5 µg/mL

What does the source list for `CC[C@@H](CO)NCCN[C@@H](CC)CO` [ETHAMBUTOL]?
EC50 [1]: 3.45 µM; EC90 [1]: > 200 µM; EC50 [2]: 1.5 µM; EC90 [2]: 1.64 µM; MIC [2]: 6.25 µM (≈ 1.28 µg/mL); IC50 (Vero): > 62.5 µg/mL

Which results are given for `N[C@@H]1CONC1=O` [CYCLOSERINE]?
EC50 [1]: 24.8 µM; EC90 [1]: 28 µM; MIC [1]: 100 µM (≈ 10.2 µg/mL); EC50 [2]: 23.6 µM; EC90 [2]: 26.4 µM; MIC [2]: 100 µM (≈ 10.2 µg/mL); IC50 (Vero): > 62.5 µg/mL

`CN1C[C@H](c2cncc(-c3ccc(F)cc3)c2)[C@]2(Cc3ccccc3C2=O)[C@]12C(=O)c1cccc3cccc2c13` was tested. Which EC50 [1] did it give?
The EC50 was > 100 µM.

And the EC90 [1]?
Its EC90 is > 100 µM.

What about the EC50 [2] of the same compound?
The EC50 was 64.5 µM.

And the EC90 [2]?
Its EC90 is > 100 µM.

What about the IC50 (Vero) of the same compound?
The IC50 was > 62.5 µg/mL.

How did the EC50 [1] turn out when `CN1C[C@H](c2ccccc2)[C@]2(Cc3ccccc3C2=O)[C@]12C(=O)c1cccc3cccc2c13` was run?
The EC50 was > 100 µM.

What about the EC90 [1] of the same compound?
The EC90 was > 100 µM.

What about the EC50 [2] of the same compound?
The EC50 was > 100 µM.

What about the EC90 [2] of the same compound?
The EC90 was > 100 µM.

What about the IC50 (Vero) of the same compound?
The IC50 was > 62.5 µg/mL.

What does the source list for `CN1C[C@H](c2cccc([N+](=O)[O-])c2)[C@]2(Cc3ccccc3C2=O)[C@]12C(=O)c1cccc3cccc2c13`?
EC50 [1]: 77.5 µM; EC90 [1]: > 100 µM; EC50 [2]: 10.1 µM; EC90 [2]: > 100 µM; IC50 (Vero): > 62.5 µg/mL

`CN(C)c1ccc([C@H]2CN(C)[C@@]3(C(=O)c4cccc5cccc3c45)[C@@]23Cc2ccccc2C3=O)cc1` was tested. Which EC50 [1] did it give?
The EC50 was 56 µM.

And the EC90 [1]?
The EC90 was > 100 µM.

And the EC50 [2]?
Its EC50 is 9.87 µM.

What about the EC90 [2] of the same compound?
The EC90 was 55.3 µM.

What about the MIC [2] of the same compound?
The MIC was 100 µM (≈ 47.3 µg/mL).

And the IC50 (Vero)?
Its IC50 is > 62.5 µg/mL.

Which results are given for `CCc1nc(N)nc(N)c1-c1ccc(Cl)cc1` [PYRIMETHAMINE]?
EC50 [1]: 25.1 µM; EC90 [1]: 28 µM; MIC [1]: 100 µM (≈ 24.9 µg/mL); EC50 [2]: 24.3 µM; EC90 [2]: 46.4 µM; MIC [2]: 100 µM (≈ 24.9 µg/mL); IC50 (Vero): > 62.5 µg/mL

What does the source list for `CN1C[C@H](c2ccc(Br)cc2)[C@]2(Cc3ccccc3C2=O)[C@]12C(=O)c1cccc3cccc2c13`?
Ratio [3]: >8; EC50 [1]: 15.1 µM; EC90 [1]: > 100 µM; Ratio EC50 [4]: 10.7; Ratio [5]: >8; Ratio EC50 [6]: 11; EC50 [2]: 2.2 µM; EC90 [2]: 10.8 µM; MIC [2]: 12.5 µM (≈ 6.36 µg/mL); Ratio [7]: 2.45; Ratio [8]: 4.3; IC50 (Vero): > 62.5 µg/mL

What does the source list for `CN1C[C@H](c2cccc3c2OCO3)[C@]2(Cc3ccccc3C2=O)[C@]12C(=O)c1cccc3cccc2c13`?
EC50 [1]: 63.8 µM; EC90 [1]: > 100 µM; EC50 [2]: 11.5 µM; EC90 [2]: > 100 µM; MIC [2]: 100 µM (≈ 47.4 µg/mL); IC50 (Vero): > 62.5 µg/mL

Which results are given for `NCC[C@H](O)C(=O)N[C@@H]1C[C@H](N)[C@@H](O[C@H]2O[C@H](CN)[C@@H](O)[C@H](O)[C@H]2O)[C@H](O)[C@H]1O[C@H]1O[C@H](CO)[C@@H](O)[C@H](N)[C@H]1O` [AMIKACIN]?
EC50 [1]: 0.12 µM; EC90 [1]: 0.14 µM; MIC [1]: 0.16 µM (≈ 0.0937 µg/mL); EC50 [2]: 0.07 µM; EC90 [2]: 0.12 µM; MIC [2]: 0.16 µM (≈ 0.0937 µg/mL); IC50 (Vero): > 62.5 µg/mL

Which EC50 [1] does the source give for `COc1ccc(OC)c([C@H]2CN(C)[C@@]3(C(=O)c4cccc5cccc3c45)[C@@]23Cc2ccccc2C3=O)c1` here?
The EC50 was 68 µM.

What about the EC90 [1] of the same compound?
Its EC90 is > 100 µM.

And the EC50 [2]?
Its EC50 is 9.56 µM.

And the EC90 [2]?
Its EC90 is > 100 µM.

What about the IC50 (Vero) of the same compound?
Its IC50 is > 62.5 µg/mL.

How did the EC50 [1] turn out when `CN1C[C@H](c2ccc(N3CCOCC3)cc2)[C@]2(Cc3ccccc3C2=O)[C@]12C(=O)c1cccc3cccc2c13` was run?
The EC50 was > 100 µM.

What about the EC90 [1] of the same compound?
The EC90 was > 100 µM.

What about the EC50 [2] of the same compound?
Its EC50 is 18.9 µM.

And the EC90 [2]?
Its EC90 is > 100 µM.

And the IC50 (Vero)?
The IC50 was > 62.5 µg/mL.

How did the EC50 [1] turn out when `CO[C@H]1/C=C/O[C@@]2(C)Oc3c(C)c(O)c4c(O)c(c(/C=N/N5CCN(C)CC5)c(O)c4c3C2=O)NC(=O)/C(C)=C\C=C\[C@H](C)[C@H](O)[C@@H](C)[C@@H](O)[C@@H](C)[C@H](OC(C)=O)[C@@H]1C` [RIFAMPIN] was run?
Its EC50 is 0.02 µM.

And the EC90 [1]?
Its EC90 is 0.02 µM.

What about the MIC [1] of the same compound?
The MIC was 0.16 µM (≈ 0.132 µg/mL).

And the EC50 [2]?
Its EC50 is 0.02 µM.

And the EC90 [2]?
Its EC90 is 0.03 µM.

And the MIC [2]?
Its MIC is 0.04 µM (≈ 0.0329 µg/mL).

And the IC50 (Vero)?
The IC50 was > 62.5 µg/mL.

How did the EC50 [1] turn out when `CN1C[C@H](c2ccc(OC(F)(F)F)cc2)[C@]2(Cc3ccccc3C2=O)[C@]12C(=O)c1cccc3cccc2c13` was run?
Its EC50 is 36.6 µM.

And the EC90 [1]?
The EC90 was > 100 µM.

And the EC50 [2]?
The EC50 was 8.51 µM.

And the EC90 [2]?
The EC90 was 26.1 µM.

What about the MIC [2] of the same compound?
The MIC was 50 µM (≈ 25.7 µg/mL).

And the IC50 (Vero)?
Its IC50 is > 62.5 µg/mL.
